Measurements taken from patent US20090022803A1, “Oral Formulations For Delivery of Catecholic Butanes Including Ndga Compounds” (priority 2005, published 2009).

Assay: Stability of M4N formulations at room temperature (time to crystallized precipitation)
Format: physicochemical
Description: A 10 mL solution of M4N at a concentration of about 10 mg/mL in 40% BP-β-CD was made as follows. About 10 mL of the 40% HP-β-CD solution were added to a glass beaker containing a stir bar. The beaker was placed on a magnetic plate and the stir bar was set to stir at medium speed. About […] of M4N were slowly added to the 40% HP-β-CD in the center of the beaker with the aid of a spatula. The M4N/40% HP-β-CD mixture was stirred for 2 hr or until all M4N was uniformly suspended without any clumps being present. The M4N/40% HP-β-CD mixture was optionally heated at 80° C. for about 30 min. (or longer if a larger volume of solution was desired, for example, 1 hr at 80° C. for 100 mL of the M4N/HP-β-CD mixture), or longer as needed to ensure complete dissolution of M4N. […] The final M4N/40% HP-β-CD solution was stored at room temperature and was kept protected from light. This process may be scaled up or down to obtain the requisite volume or concentration of M4N. Formulations containing M4N in other cyclodextrin solutions may be similarly made, such as, for example, by substituting HP-β-CD in the process described above with other cyclodextrins.
A 100 mL solution of M4N at a concentration of about 25 mg/mL in PEG 300 was made as follows. About 100 mL of PEG 300 were added to a glass beaker containing a stir bar. The beaker was placed on a magnetic plate and the stir bar was set to stir at medium speed. About 2.5 g of M4N were slowly added to the PEG 300 in the center of the beaker with the aid of a spatula to prevent M4N from sticking to the beaker wall. The M4N/PEG 300 mixture was stirred for 24 hr or until all M4N had dissolved or was uniformly suspended without any clumps being present. The M4N/PEG 300 mixture was optionally heated at about 60° C. for about 30 min. (or longer if a larger volume of solution was desired, for example, 1 hr at 60° C. for 500 mL of the M4N/PEG 300 mixture), or longer as needed to ensure complete dissolution of M4N. […] If crystals formed, the M4N/PEG 300 solution could be heated again at 60° C. for about 1 hr, with stirring, on a hot magnetic plate until all M4N was dissolved back in solution. The final M4N/PEG 300 solution was stored at room temperature and was kept protected from light. This process may be scaled up or down to obtain the requisite volume or concentration of M4N. Formulations containing M4N in other PEGs may be similarly made, such as, for example, by substituting PEG 300 in the process described above with PEG 400 or PEG 400 monolaurate.
Formulations containing M4N in other water-insoluble lipids combined with non-ionic, ionic or amphipathic surfactants or water-soluble organic solvents may be similarly made, such as, for example, by substituting sesame oil in the process described above with corn oil, olive oil, soybean oil, peppermint oil, or mineral oil and substituting Tween® 20 with Tween® 80, TPGS, lecithin, PEG 300, PEG 400, PEG 400 monolaurate, glycerol, PVP, PG, or other solubilizing agents, and combinations thereof. Stability in reference to the clear liquid solutions herein refers to the time it takes to form crystallized precipitation in solution. A stable solution is one that is clear and free of particulates for an extended period of time.

Q: Which “Stability at Room Temperature” value (M4N 1 mg/mL suspension in 50% HP-β-CD, 0.5% CMC) does the source give for `COc1ccc(C[C@@H](C)[C@@H](C)Cc2ccc(OC)c(OC)c2)cc1OC` [Formulation M4N, meso-1,4-bis(3,4-dimethoxyphenyl)-2,3-dimethylbutane] here?
A: The value was >7 days.

Q: And the “Stability Time at Room Temperature” value (M4N 2.4 mg/mL, Sesame Oil, Tween ® 20 and Glycerol, 10% Oil emulsion in 90% saline)?
A: Its value is <1 days.

Q: And the “Stability Time at Room Temperature” value (M4N 2.9 mg/mL, Sesame Oil and Tween ® 20, 10% Oil emulsion in 90% saline)?
A: The value was <3 days.

Q: And the “Stability at Room Temperature” value (M4N 3.13 mg/mL in 5% HP-β-CD, 12.5% PEG 300 (v/v))?
A: The value was <7 days.

Q: And the “Stability at Room Temperature” value (M4N 4.17 mg/mL in 6.7% HP-β-CD, 16.7% PEG 300 (v/v))?
A: The value was >7 days.

Q: What about the “Stability at Room Temperature” value (M4N 6.25 mg/mL in 10% HP-β-CD, 25% PEG 300 (v/v)) of the same compound?
A: The value was >7 days.

Q: And the “Stability at Room Temperature” value (M4N 10 mg/mL in 30% HP-β-CD)?
A: The value was <3 days.

Q: And the “Stability at Room Temperature” value (M4N 10 mg/mL in 32% HP-β-CD, 20% PEG 400 (v/v))?
A: The value was >7 days.

Q: What about the “Stability at Room Temperature” value (M4N 10 mg/mL in 50% HP-β-CD) of the same compound?
A: Its value is >7 days.

Q: And the “Stability at Room Temperature” value (M4N 10 mg/mL in 50% HP-β-CD in saline)?
A: The value was >7 days.

Q: And the “Stability Time at Room Temperature” value (M4N 10 mg/mL in Peppermint Oil)?
A: Its value is >3 days.

Q: And the “stable at room temperature” value (M4N 10 mg/mL in Tween® 20)?
A: The value was “more than 7 days”.

Q: What about the “stable at room temperature” value (M4N 10 mg/mL in Tween® 80) of the same compound?
A: Its value is “more than 3 days”.

Q: And the “Stability at Room Temperature” value (M4N 12.5 mg/mL in 12.5% HP-β-CD, 50% PEG 300 (v/v))?
A: The value was <1 days.

Q: What about the “Stability at Room Temperature” value (M4N 12.5 mg/mL in 12.5% HP-β-CD, 50% PEG 400 (v/v)) of the same compound?
A: The value was <1 days.

Q: What about the “Stability at Room Temperature” value (M4N 12.5 mg/mL in 15% HP-β-CD, 50% PEG 300 (v/v)) of the same compound?
A: Its value is <7 days.

Q: And the “Stability at Room Temperature” value (M4N 12.5 mg/mL in 15% HP-β-CD, 50% PEG 400 (v/v))?
A: Its value is <3 days.

Q: And the “Stability at Room Temperature” value (M4N 12.5 mg/mL in 20% HP-β-CD, 50% PEG 300 (v/v))?
A: The value was >7 days.

Q: And the “Stability at Room Temperature” value (M4N 12.5 mg/mL in 20% HP-β-CD, 50% PEG 400 (v/v))?
A: Its value is <7 days.

Q: And the “Stability at Room Temperature” value (M4N 12.5 mg/mL in 30% HP-β-CD, 25% PEG 400 (v/v))?
A: The value was >7 days.

Q: What about the “Stability at Room Temperature” value (M4N 12.9 mg/mL in 23% HP-β-CD, 43% PEG 400 (v/v)) of the same compound?
A: Its value is >7 days.

Q: And the “Stability at Room Temperature” value (M4N 12.9 mg/mL in 23% HP-β-CD, 43 PEG 300 (v/v))?
A: The value was >7 days.

Q: What about the “Stability at Room Temperature” value (M4N 13.3 mg/mL in 27% HP-β-CD, 33% PEG 300 (v/v)) of the same compound?
A: The value was >7 days.

Q: And the “Stability at Room Temperature” value (M4N 13.3 mg/mL in 27% HP-β-CD, 33% PEG 400 (v/v))?
A: Its value is >7 days.

Q: What about the “stable at room temperature” value (M4N 20 mg/mL in Tween® 20) of the same compound?
A: Its value is “more than 7 days”.

Q: And the “Stability at Room Temperature” value (M4N 20 mg/mL suspension in 50% HP-β-CD, 0.5% CMC)?
A: Its value is >7 days.

Q: What about the “Stability Time at Room Temperature” value (M4N 24.3 mg/mL in 75% Sesame Oil, 9% Tween ® 20, 16% Glycerol) of the same compound?
A: The value was <7 days.

Q: What about the “Stability Time at Room Temperature” value (M4N 29 mg/mL in 89% Sesame Oil, 11% Tween ® 20) of the same compound?
A: The value was >7 days.

Q: And the “Stability Time at Room Temperature” value (M4N 40 mg/mL in 50% Peppermint Oil, 50% Tween ® 20)?
A: Its value is >3 days.

Q: What about the “stable at room temperature” value (M4N 40 mg/mL in Tween® 20) of the same compound?
A: The value was “less than 3 days”.

Q: And the “Stability Time at Room Temperature” value (M4N 50 mg/mL in Camillia Oil)?
A: Its value is >7 days.

Q: What about the “Stability Time at Room Temperature” value (M4N 50 mg/mL in Mineral Oil) of the same compound?
A: Its value is <1 days.

Q: And the “stable at room temperature” value (M4N 50 mg/mL in Tween® 80)?
A: Its value is “less than 1 day”.

Q: And the “Stability Time at Room Temperature” value (M4N 60 mg/mL in 50% Peppermint Oil, 50% Tween ® 20)?
A: The value was >3 days.

Q: And the “Stability Time at Room Temperature” value (M4N 60 mg/mL in Peppermint Oil)?
A: The value was <3 days.

Q: And the “Stability at Room Temperature” value (M4N 60 mg/mL suspension in 50% HP-β-CD, 0.5% CMC)?
A: Its value is >7 days.

Q: What about the “stable at room temperature” value (M4N 80 mg/mL in Tween® 20) of the same compound?
A: Its value is “less than 3 days”.

Q: And the “Stability Time at Room Temperature” value (M4N 100 mg/mL in Peppermint Oil)?
A: Its value is <1 days.

Q: What about the “Stability Time at Room Temperature” value (M4N 125 mg/mL in Peppermint Oil) of the same compound?
A: The value was <1 days.

Q: What about the “stability of the suspension at room temperature” value (M4N in glycerol monooleate (Glymo), heated to 60° C., cooled) of the same compound?
A: Its value is “remained stable for two weeks”.

Q: What about the “stable at room temperature” value (M4N up to 60 mg/mL in 50% Tween® 20 and 50% PEG 400) of the same compound?
A: Its value is “more than 3 days”.

Q: What about the “Stability Time at Room Temperature” value (PEG 400 mono-laurate 100%, M4N 20 mg/mL) of the same compound?
A: Its value is >3 days.

Q: What about the “Stability Time at Room Temperature” value (PEG 400 mono-laurate 100%, M4N 50 mg/mL) of the same compound?
A: The value was <1 days.

Q: And the “Stability Time at Room Temperature” value (Propylene Glycol 100% (w/v), M4N 1 mg/mL)?
A: The value was <1 days.

Q: And the “Stability Time at Room Temperature” value (Propylene Glycol 100% (w/v), M4N 10 mg/mL)?
A: The value was <1 days.

Q: And the “Stability Time at Room Temperature” value (Propylene Glycol 100% (w/v), M4N 20 mg/mL)?
A: Its value is <1 days.

Q: What about the “Stability at Room Temperature” value (TPGS 20% (w/v), M4N 60 mg/ml, suspension) of the same compound?
A: The value was >3 days.

Q: What about the “Stability at Room Temperature” value (TPGS 20% (w/v), M4N 100 mg/ml, suspension) of the same compound?
A: The value was >3 days.
